The values that follow come from patent US8329447B2, “Strain of Lactobacillus crispatus” (Osel, Inc., priority 2008, dated 2012).

“Also recorded” adds a separate entry of the source.

This test concerns SJ-3C cells. Kind of test: Agar overlay disc diffusion antibiotic susceptibility. To be noted: BBL Sensi-Disc on MRS agar overlay, 37° C. overnight anaerobically. The class given is cell-based, Lactobacillus crispatus.
In the case of `O=C(O)c1cn(C2CC2)c2cc(N3CCNCC3)c(F)cc2c1=O` [ciprofloxacin], the “antibiotic susceptibility or resistance of SJ-3C” value was “resistance”. The same measure for `C[C@@H]1O[C@@H]1P(=O)(O)O` [fosfomycin]: “resistance”. Next, `CCC[C@@H]1C[C@@H](C(=O)N[C@@H]([C@H]2O[C@H](SC)[C@H](O)[C@@H](O)[C@H]2O)[C@@H](C)O)N(C)C1` [lincomycin]: “resistance; also recorded: resistant”. Consider `Cc1ncc([N+](=O)[O-])n1CCO` [metronidazole], for which the “antibiotic susceptibility or resistance of SJ-3C” value was “resistance”. Next, `Cc1noc(NS(=O)(=O)c2ccc(N)cc2)c1C` [sulfisoxazole]: “resistance”; gentamicin: “resistance”.

For the compound sulfamethoxazole-trimethoprim, the “antibiotic susceptibility or resistance of SJ-3C” value was “resistance”.
